Results: PMC6978363, “Chaperone mediated detection of small molecule target binding in cells” (Nature Communications, 2020)

Target: T1, c-RAF (Homo sapiens, UniProt P04049)
T1 construct: gene RAF1
Assay: c-RAF protein level change by immunofluorescence in A549 cells (with and without 17-AAG)
Assay type: cell-based

T1 sequence (P04049 whole entry): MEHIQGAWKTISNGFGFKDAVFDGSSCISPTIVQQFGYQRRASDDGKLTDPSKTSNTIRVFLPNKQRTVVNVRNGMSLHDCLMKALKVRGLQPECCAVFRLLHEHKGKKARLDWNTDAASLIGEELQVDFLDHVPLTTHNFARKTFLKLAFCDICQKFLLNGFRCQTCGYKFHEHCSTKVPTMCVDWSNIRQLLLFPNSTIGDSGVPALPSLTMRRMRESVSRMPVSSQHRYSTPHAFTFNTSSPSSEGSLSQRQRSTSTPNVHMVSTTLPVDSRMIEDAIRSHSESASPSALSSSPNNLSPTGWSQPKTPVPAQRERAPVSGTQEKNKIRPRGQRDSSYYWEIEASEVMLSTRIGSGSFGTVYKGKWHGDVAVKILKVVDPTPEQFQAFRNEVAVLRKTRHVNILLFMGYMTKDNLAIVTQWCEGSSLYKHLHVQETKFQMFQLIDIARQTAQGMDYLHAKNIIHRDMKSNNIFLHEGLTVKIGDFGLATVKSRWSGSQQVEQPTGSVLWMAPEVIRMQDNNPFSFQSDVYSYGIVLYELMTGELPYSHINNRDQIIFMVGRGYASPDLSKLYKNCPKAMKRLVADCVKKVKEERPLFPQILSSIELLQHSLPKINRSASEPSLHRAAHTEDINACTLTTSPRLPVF

Cc1ccc(NC(=O)c2ccnc(C(F)(F)F)c2)cc1-c1cc(N2CCOCC2)nc(N2CC(O)C2)c1 [Novartis pan-RAF inhibitor]
c-RAF protein level change by immunofluorescence in A549 cells (with and without): The interactions between c-RAF and these inhibitors are examples of a small molecule causing a direct effect on protein abundance
